Reference: ChEMBL document CHEMBL1201862, “PubChem BioAssay data set” (2004)
Calls of active or inactive are those of the source.

Assays:
[1] = target: Eukaryotic translation initiation factor 4E (Mus musculus, UniProt P63073); assay: eIF4E–eIF4G protein interaction inhibitors, dose response, biochemical, TR-FRET (AID 855); type: functional;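 also: potency for disrupting eIF4E binding to eIF4GI seen as loss of FRET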
[2] = target: DNA dC->dU-editing enzyme APOBEC-3A (Homo sapiens, UniProt P31941); assay: Dose Response confirmation of small molecule APOBEC3A DNA Deaminase Inhibitors via a fluorescence-based single-stranded DNA deaminase assay. [Related pubchem assays (depositor defined):AID493011, AID493024]; type: functional
Chain of DNA dC->dU-editing enzyme APOBEC-3A (P31941 whole entry): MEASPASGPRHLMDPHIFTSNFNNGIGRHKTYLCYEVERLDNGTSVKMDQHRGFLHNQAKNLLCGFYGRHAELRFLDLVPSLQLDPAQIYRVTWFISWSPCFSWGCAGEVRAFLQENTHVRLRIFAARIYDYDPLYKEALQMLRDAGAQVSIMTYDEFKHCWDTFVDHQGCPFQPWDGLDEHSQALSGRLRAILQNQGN

[3] = target: DNA dC->dU-editing enzyme APOBEC-3G (Homo sapiens, UniProt Q9HC16); type: functional;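 also: Dose-response counterscreen measuring inhibition of APOBEC3G DNA deaminase activity, run while confirming APOBEC3A inhibitors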
Chain of DNA dC->dU-editing enzyme APOBEC-3G (Q9HC16 whole entry, the tested form may be a part): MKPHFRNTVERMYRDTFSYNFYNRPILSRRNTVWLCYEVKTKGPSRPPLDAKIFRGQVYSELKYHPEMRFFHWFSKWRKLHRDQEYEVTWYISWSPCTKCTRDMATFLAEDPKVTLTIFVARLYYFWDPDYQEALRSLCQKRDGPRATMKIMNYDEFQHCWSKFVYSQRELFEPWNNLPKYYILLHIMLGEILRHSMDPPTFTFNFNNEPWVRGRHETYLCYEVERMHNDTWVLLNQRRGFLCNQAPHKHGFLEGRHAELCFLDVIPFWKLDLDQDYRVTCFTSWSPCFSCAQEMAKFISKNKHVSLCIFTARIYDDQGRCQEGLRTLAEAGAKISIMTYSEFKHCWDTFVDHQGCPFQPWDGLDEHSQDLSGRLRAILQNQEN

[4] = target: T1, Carboxy-terminal domain RNA polymerase II polypeptide A small phosphatase 1 (Homo sapiens, UniProt Q9GZU7); assay: inhibitors of CTDSP1, concentration-response testing, biochemical assay, absorbance-based, actives from ultra-high-throughput screening (AID 540297); type: functional
T1 sequence (Q9GZU7 whole entry): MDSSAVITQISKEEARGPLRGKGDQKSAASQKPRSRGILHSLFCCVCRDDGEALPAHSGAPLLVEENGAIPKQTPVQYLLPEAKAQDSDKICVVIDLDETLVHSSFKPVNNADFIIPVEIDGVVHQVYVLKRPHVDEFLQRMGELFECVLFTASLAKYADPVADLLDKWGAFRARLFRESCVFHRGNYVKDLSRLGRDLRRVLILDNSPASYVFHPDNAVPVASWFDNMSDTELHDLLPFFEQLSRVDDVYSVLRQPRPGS

HEK293 [5] = assay: NOD1 signaling inhibitors, primary screen, cell-based, luminescence, uHTS (AID 1578); type: functional; details: Homo sapiens
HEK293 [6] = assay: cells; type: functional, cell-based; details: Homo sapiens
HEK293 [7] = assay: cells; type: functional, cell-based; details: Homo sapiens; remark: listed apart in the source
HEK293 [8] = assay: NOD2 signaling inhibitors in MDP-stimulated cells, cell-based, uHTS, luminescence (AID 2001); type: functional; details: Homo sapiens
Leucine aminopeptidase = target: T2, Leucine aminopeptidase (Plasmodium falciparum 3D7, UniProt Q8IL11); assay: P. falciparum M17LAP inhibitors, primary screen, biochemical, fluorogenic H-Leu-NHMec substrate, 1536-well (AID 1619); type: functional
T2 sequence (Q8IL11 whole entry): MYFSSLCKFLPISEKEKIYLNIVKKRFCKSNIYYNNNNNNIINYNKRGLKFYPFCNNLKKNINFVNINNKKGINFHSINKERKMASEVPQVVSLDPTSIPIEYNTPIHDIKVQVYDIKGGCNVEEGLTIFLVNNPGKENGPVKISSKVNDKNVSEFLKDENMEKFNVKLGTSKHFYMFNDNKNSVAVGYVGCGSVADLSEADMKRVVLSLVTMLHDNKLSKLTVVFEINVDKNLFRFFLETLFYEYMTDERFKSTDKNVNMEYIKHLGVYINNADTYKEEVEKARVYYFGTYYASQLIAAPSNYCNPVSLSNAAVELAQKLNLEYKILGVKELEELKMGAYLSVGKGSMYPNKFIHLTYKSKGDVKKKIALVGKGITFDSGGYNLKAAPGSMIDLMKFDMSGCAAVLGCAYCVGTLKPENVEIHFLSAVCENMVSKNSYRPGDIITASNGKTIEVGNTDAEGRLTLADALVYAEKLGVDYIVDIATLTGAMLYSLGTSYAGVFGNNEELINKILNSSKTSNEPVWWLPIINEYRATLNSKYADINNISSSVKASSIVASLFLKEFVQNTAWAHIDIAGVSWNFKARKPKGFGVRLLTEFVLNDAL

[9] = target: Glyceraldehyde-3-phosphate dehydrogenase (Homo sapiens, UniProt P04406)
Chain of Glyceraldehyde-3-phosphate dehydrogenase (P04406 whole entry, the tested form may be a part): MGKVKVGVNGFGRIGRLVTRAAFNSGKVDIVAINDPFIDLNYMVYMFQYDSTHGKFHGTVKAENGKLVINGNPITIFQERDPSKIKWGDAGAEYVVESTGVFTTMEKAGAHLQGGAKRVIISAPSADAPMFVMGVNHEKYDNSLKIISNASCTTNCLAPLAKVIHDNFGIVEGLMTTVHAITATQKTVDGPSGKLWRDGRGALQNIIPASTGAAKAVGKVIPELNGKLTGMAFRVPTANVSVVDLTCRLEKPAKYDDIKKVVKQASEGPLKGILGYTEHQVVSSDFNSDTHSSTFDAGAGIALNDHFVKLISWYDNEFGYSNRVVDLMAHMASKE

[10] = inhibitors of HIV Env-driven cell fusion, dose response, cherry-pick (AID 652057); type: functional, cell-based
[11] = ZM109 Env clade C HIV-1 fusion inhibitors, dose response, HeLa effector, CEM target cells, luciferase, cherry-pick (AID 652058); type: functional, cell-based
[12] = off-target signal loss in HeLa-CEM21 co-culture – HeLa F-luc CTL cells, cherry-picked, counter-screen for HIV-1 Env fusion inhibitor project, dose response (AID 652040); type: functional, cell-based;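 also: potency for signal decrease marking cytotoxic or nonspecific inhibition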
[13] = inhibitors of clade B AD8 Env fusion, dose response, cell-based, cherry-pick (AID 652062); type: functional;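 also: luciferase signal from cell-cell fusion driven by HIV-1 clade B AD8 Env; potency is for inhibitors of fusion seen as a drop in luminescence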
[14] = Shn3 3'UTR reporter inhibitors, dose response, cell-based, Clone20 osteoblasts, firefly luciferase, cherry-picked (AID 624132); type: functional;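 also: firefly luciferase luminescence from reporter carrying the Shn3 3'UTR in osteoblasts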
[15] = HepG2 cell cytotoxicity, dose response, cytotoxicity control for Shn3 inhibitor project, CellTiter-Glo, cherry-picked (AID 624134); type: functional, cell-based
[16] = control 3'UTR Renilla luciferase suppression, dose response, counter-screen for Shn3 inhibitor project, cell-based, Clone20-Shn3RL, cherry-picked (AID 624133); type: functional
Cytochrome P450 3A4 = Cytochrome P450 3A4 (Homo sapiens, UniProt P08684); details: Potency;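 also: confirmatory qHTS run detecting inhibitors and substrates of CYP3A4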
Chain of Cytochrome P450 3A4 (P08684 whole entry): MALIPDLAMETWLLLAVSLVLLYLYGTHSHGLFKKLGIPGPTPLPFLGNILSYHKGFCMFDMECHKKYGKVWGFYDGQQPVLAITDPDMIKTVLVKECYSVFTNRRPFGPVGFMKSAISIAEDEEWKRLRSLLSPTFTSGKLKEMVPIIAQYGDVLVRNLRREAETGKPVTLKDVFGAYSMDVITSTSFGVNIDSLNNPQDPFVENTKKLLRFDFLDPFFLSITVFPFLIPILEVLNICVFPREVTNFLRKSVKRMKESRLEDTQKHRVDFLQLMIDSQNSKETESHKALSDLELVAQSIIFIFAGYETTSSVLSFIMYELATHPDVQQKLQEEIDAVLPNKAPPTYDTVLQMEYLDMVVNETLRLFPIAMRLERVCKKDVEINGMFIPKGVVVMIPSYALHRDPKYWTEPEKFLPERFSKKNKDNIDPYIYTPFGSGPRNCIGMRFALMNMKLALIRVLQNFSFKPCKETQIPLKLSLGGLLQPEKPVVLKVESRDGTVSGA

[17] = test system: Streptococcus sp. 'group A'; assay: growth inhibition of control SK(-) GAS strain, dose response, counter-screen for streptokinase expression inhibitor project, luminescence, kanamycin, BacTiterGlo, confirmation (AID 1900); type: functional, organism-based
Streptokinase A = target: T3, Streptokinase A (Streptococcus pyogenes serotype M1, UniProt P10520); assay: S. pyogenes streptokinase expression inhibitors, potency, dose response, plasminogen activation absorbance, OD405 (AID 1914); type: functional, Streptococcus pyogenes M1 GAS;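 also: secreted streptokinase activity via plasminogen activation per viability signal from cell pellet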
T3 sequence (P10520 whole entry): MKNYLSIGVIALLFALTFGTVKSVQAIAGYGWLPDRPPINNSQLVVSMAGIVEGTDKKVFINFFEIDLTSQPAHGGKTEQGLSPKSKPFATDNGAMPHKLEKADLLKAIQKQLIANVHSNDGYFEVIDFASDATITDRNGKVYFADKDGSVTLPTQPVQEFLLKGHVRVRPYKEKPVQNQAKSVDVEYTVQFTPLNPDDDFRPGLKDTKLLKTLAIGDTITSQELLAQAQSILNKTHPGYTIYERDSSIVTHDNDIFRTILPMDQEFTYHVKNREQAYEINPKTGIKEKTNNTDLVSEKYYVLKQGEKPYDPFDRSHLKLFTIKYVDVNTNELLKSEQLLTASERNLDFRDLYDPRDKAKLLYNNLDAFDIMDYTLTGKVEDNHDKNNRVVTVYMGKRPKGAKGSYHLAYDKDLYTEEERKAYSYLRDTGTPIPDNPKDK

[18] = microbe, parasite or virus in culture; type: functional; details: Mycobacterium tuberculosis
[19] = target: T4, Calpain-2 catalytic subunit (Sus scrofa, UniProt P43367); assay: pig calpain II inhibitor potency, dose response, biochemical, fluorogenic peptide substrate (AID 1420); type: functional
T4 sequence (P43367 whole entry): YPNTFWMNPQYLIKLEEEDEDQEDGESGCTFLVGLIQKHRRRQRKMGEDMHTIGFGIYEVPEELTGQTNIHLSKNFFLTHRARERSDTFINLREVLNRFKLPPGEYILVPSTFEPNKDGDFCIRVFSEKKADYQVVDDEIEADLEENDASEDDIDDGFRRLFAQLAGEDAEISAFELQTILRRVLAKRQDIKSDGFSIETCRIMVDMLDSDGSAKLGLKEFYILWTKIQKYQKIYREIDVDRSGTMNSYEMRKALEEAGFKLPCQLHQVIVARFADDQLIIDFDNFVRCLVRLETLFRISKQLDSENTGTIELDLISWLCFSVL

Streptococcus = assay: Group A Streptococcus viability loss, dose response, counter-screen for streptokinase expression inhibitor project, luminescence, BacTiterGlo (AID 1915); type: functional, organism-based;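 also: potency for reduction of bacterial viability or growth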
Fatty acid synthase [20] = target: T5, Fatty acid synthase (Homo sapiens, UniProt P49327); assay: FAS thioesterase domain inhibitors, dose response, biochemical, endpoint fluorescence intensity, uHTS hits (AID 624327); type: functional;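 also: fluorescence from hydrolysis of an O-methyl fluorescein acyl ester substrate by the enzyme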
T5 sequence (P49327 whole entry, the tested form may be a part): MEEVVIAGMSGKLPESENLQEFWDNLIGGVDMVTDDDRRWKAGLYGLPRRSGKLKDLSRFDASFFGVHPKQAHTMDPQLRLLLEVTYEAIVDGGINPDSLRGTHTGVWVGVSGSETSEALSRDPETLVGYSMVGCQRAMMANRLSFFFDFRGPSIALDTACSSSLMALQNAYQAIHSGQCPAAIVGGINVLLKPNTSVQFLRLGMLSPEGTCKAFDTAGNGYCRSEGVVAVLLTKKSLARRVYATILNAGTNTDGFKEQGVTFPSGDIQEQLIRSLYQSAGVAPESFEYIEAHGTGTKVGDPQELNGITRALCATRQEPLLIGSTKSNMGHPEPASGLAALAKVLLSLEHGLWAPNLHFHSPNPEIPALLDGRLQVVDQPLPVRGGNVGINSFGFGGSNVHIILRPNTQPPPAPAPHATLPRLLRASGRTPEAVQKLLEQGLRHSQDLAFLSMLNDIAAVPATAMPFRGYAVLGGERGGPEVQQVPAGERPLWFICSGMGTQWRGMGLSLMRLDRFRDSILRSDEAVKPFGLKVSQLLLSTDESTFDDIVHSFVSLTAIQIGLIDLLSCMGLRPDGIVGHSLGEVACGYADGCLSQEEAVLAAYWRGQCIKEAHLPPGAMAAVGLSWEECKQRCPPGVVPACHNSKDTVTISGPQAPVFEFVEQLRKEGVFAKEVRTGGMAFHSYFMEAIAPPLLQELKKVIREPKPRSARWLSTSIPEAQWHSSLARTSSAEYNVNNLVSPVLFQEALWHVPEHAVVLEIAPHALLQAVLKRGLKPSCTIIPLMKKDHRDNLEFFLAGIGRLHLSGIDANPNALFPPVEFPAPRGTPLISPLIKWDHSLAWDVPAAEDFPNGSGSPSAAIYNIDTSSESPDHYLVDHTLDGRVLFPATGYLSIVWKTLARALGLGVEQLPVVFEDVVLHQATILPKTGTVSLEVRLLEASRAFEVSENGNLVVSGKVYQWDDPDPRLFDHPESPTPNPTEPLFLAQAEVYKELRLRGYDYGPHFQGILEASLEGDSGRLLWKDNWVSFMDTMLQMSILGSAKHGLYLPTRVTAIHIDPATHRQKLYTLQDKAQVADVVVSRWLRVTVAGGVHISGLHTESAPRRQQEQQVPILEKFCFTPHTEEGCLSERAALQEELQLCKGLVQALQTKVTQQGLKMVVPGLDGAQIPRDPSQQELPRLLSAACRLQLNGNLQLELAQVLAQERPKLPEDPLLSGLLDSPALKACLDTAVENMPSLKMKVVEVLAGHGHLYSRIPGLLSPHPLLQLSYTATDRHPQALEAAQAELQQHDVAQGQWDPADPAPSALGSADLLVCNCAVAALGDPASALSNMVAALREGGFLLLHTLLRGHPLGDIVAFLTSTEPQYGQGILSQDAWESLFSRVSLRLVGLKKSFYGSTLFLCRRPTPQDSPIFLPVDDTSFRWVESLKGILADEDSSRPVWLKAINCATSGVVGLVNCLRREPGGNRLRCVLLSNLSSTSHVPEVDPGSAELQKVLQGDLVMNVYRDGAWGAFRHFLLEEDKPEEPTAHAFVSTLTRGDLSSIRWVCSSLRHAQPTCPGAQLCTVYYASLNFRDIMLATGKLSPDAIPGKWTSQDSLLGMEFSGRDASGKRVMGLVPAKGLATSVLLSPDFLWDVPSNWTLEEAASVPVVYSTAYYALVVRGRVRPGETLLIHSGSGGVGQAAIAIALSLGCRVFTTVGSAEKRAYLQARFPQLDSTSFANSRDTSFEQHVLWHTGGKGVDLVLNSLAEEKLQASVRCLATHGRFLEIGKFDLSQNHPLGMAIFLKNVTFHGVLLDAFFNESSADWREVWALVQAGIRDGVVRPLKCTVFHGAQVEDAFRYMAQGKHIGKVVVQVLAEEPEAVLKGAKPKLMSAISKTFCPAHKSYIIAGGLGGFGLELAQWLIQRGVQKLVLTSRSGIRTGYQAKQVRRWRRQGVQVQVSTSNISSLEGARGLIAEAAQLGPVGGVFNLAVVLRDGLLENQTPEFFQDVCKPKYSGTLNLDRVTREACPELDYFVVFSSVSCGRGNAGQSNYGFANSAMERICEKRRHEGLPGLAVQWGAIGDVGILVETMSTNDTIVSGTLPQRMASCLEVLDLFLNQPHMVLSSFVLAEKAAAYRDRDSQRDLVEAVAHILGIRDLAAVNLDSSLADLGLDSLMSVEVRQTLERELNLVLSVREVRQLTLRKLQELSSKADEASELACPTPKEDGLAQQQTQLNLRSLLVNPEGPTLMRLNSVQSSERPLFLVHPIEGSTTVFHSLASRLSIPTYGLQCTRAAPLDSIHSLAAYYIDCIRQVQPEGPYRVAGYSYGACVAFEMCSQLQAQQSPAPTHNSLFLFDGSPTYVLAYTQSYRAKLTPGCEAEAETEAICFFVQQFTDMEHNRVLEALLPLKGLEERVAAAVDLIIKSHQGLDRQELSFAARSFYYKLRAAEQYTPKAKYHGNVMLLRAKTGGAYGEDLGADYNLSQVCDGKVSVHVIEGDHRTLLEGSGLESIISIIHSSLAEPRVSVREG

Fatty acid synthase [21] = target: T5, Fatty acid synthase; assay: FAS thioesterase domain inhibitors, dose response, biochemical, kinetic fluorescence intensity (AID 624326); type: functional;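 also: rate of fluorescence rise from hydrolysis of a fluorogenic O-methyl fluorescein ester substrate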
[22] = A549 cell cytotoxicity, dose response, cytotoxicity control, plate reader, cherry-pick, antagonist series (AID 743412); type: functional, cell-based
[23] = LGR2 antagonists, dose response, cell-based, HEK293, CRE-luciferase reporter, cherry pick, set 2 (AID 743343); type: functional;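 also: transfected cells were stimulated with diluted bursicon conditioned medium after compound addition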
[24] = MC4R antagonists, dose response, counter-screen for LGR2 antagonist project, cell-based, plate reader, cherry pick (AID 743444); type: functional;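 also: transfected HEK 293 cells stimulated with alpha-MSH peptide; potency of inhibitors of the alpha-MSH evoked signal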
[25] = HEK293 cell cytotoxicity, dose response, cytotoxicity control, plate reader, cherry-picked samples (AID 743446); type: functional, cell-based

Chain of Eukaryotic translation initiation factor 4E (P63073 whole entry): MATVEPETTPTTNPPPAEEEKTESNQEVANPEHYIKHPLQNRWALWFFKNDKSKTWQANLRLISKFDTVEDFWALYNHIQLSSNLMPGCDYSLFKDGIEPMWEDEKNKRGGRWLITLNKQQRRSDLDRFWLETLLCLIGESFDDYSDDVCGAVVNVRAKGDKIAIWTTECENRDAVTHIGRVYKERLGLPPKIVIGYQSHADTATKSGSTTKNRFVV

CCn1cc(C(=O)OCC(=O)c2cc(C)n(-c3ccc(OC(F)F)cc3)c2C)c(=O)c2ccc(C)nc21
IC50 [1]: > 64 µM (inactive)

Cc1ccc(CCCOC(=O)C[N+]2(C)CCCCC2)cc1
IC50 [2]: 2.57 µM (active) | IC50 [3]: 2.58 µM (active)

O=[N+]([O-])c1ccc(C[n+]2cccc3ccccc32)cc1
IC50 [2]: 3.26 µM (active) | IC50 [3]: 5.45 µM (active)

COc1ccc(/C=C(\NC(=O)c2ccccc2)C(=O)OC[C@@H]2CCC[N+]3(C)CCCCC23)cc1OC (stereo partly drawn)
IC50 [2]: 2.2 µM (active) | IC50 [3]: 3.58 µM (active) | IC50 [4]: 6.62 µM (active)

CC(C)(C)NC(=O)C(=O)NN=C1CCCCCCC1
IC50 [1]: 50 µM (inactive)

CCOc1ccc(NC(=O)c2cc3ccccc3cc2O)cc1
IC50 [2]: 12.9 µM (active) | IC50 [3]: 47.5 µM (active)

CCCc1nc(SCC(=O)Nc2nnc(SCC)s2)c2c(=O)n(C)c(=O)n(C)c2n1
EC50 (HEK293 [5]): > 20 µM (inactive) | IC50 (HEK293 [6]): 7.04 µM (active) | IC50 (HEK293 [7]): > 20 µM (inactive) | IC50 (HEK293 [8]): 4.78 µM (active)

CCc1ccc(C(=O)CSc2nnc[nH]2)cc1
IC50 (Leucine aminopeptidase): 16.7 µM (active) | IC50 [1]: > 64 µM (inactive)

Cc1nnc(SCC(=O)Nc2ccc(O)c(C(=O)O)c2)s1
IC50 [9]: > 100 µM (not active)

O=C1C2CC=CCC2C(=O)N1c1nc(CCc2ccccc2)n[nH]1 (stereo not drawn)
IC50 [9]: > 100 µM (not active)

COc1cc(NC2c3ccccc3C(=O)N2Cc2ccccc2)cc(OC)c1OC (stereo not drawn)
AC50 [10]: 8.41 µM (active) | AC50 [11]: 13.1 µM (active) | AC50 [12]: 9.63 µM (active) | AC50 [13]: 7.97 µM (active)

CCCOC(=O)c1[nH]c2c(c1C)C(=O)CC(c1cc(OC)c(OC)c(OC)c1)C2 (stereo not drawn)
EC50 (HEK293 [5]): 2.78 µM (active) | IC50 (HEK293 [6]): 6.21 µM (active) | IC50 (HEK293 [7]): 16.4 µM (active) | IC50 (HEK293 [8]): 4.9 µM (active) | AC50 [14]: 1.92 µM (active) | AC50 [15]: 52.9 µM (active) | AC50 [16]: 6.82 µM (active)

O=C(COC(=O)/C=C/c1ccco1)Nc1ncc(C(F)(F)F)cc1Cl
IC50 [2]: 16.9 µM (active) | IC50 [3]: 29.9 µM (active) | IC50 [4]: 4.77 µM (active)

CCCn1c(-c2ccc(F)cc2)nc2c(NCCCCN(C)C)nc(C)nc21
AC50 (Cytochrome P450 3A4): 25.1 µM (inconclusive)

O=C(CCc1ccc(O)cc1)c1c(O)cc(O)cc1O[C@H]1OC(CO)C(O)C(O)C1O (stereo partly drawn)
AC50 (Cytochrome P450 3A4): 39.8 µM (inconclusive)

O=C(O)/C=C/C(=O)Nc1ccccc1C(=O)OCC(=O)c1ccc2c(c1)OCCO2
IC50 (Leucine aminopeptidase): 36.9 µM (active)

Cc1ccc(S(=O)(=O)N(CC(=O)O)Cc2ccco2)cc1
IC50 [2]: 16 µM (active) | IC50 [3]: 28.4 µM (active)

CCC1=C2CC[C@H]3C(=O)NC(=O)[C@H]3[C@H]2[C@@]2(C)/C(=N/CC3CC3)OC(=O)N2C1=O
AC50 (Cytochrome P450 3A4): 25.1 µM (inconclusive)

CC(C)C[C@H](NC(=O)c1[nH]cnc1C(=O)NC1CCN(C(=O)OC(C)(C)C)CC1)C(=O)OCc1ccccc1
EC50 [17]: 8.37 µM (active) | EC50 (Streptokinase A): > 150 µM (not active) | CC50 [18]: > 40 µM (active) | IC50 [19]: 4.9 µM (not active) | EC50 (Streptococcus): 12.3 µM (active) | IC50 (Fatty acid synthase [20]): 8.64 µM (active) | IC50 (Fatty acid synthase [21]): 6.28 µM (active)

O=C(O)C1CC=CCC1C(=O)Nc1ccccc1Cl (stereo not drawn)
IC50 (Leucine aminopeptidase): 12 µM (active)

COc1cc(NC2c3ccccc3C(=O)N2Cc2ccc3c(c2)OCO3)cc(OC)c1OC (stereo not drawn)
AC50 [10]: 6.77 µM (active) | AC50 [11]: 5.79 µM (active) | AC50 [12]: 14.7 µM (active) | AC50 [13]: 10.1 µM (active)

O=C(O)CS(=O)(=O)c1ccc2ccccc2c1
IC50 [9]: > 100 µM (not active)

Oc1nc2ccccc2n1C1CCN(C(c2ccccc2OC(F)(F)F)c2nnnn2Cc2ccccc2)CC1 (stereo not drawn)
AC50 [22]: 18.9 µM (active) | AC50 [23]: 20.5 µM (active) | AC50 [24]: 22.9 µM (active) | AC50 [25]: 17.6 µM (active)

c1ccc2c(Cc3c[nH]c4ccccc34)c[nH]c2c1 [ARUNDINE]
AC50 (Cytochrome P450 3A4): 39.8 µM (inconclusive)

COC(=O)CC[C@@H](C)[C@H]1CC[C@H]2[C@@H]3[C@H](O)C[C@@H]4C[C@H](O)CC[C@]4(C)[C@H]3C[C@H](O)[C@]12C [CHOLIC ACID, METHYL ESTER]
AC50 (Cytochrome P450 3A4): 31.6 µM (inconclusive)
